Laboratory results: ChEMBL document CHEMBL1144189, “Novel and potent oxazolidinone antibacterials featuring 3-indolylglyoxamide substituents” (Bioorg Med Chem Lett, 2008)
Values after ≈ are worked out from the molar mass of the structure shown.

Columns and labels:
Enterococcus faecalis [1] = assay: Antibacterial activity against vancomycin-susceptible Enterococcus faecalis DRCC 034; format: functional
Staphylococcus aureus [2] = assay: Antibacterial activity against methicillin-susceptible Staphylococcus aureus DRCC 035; format: functional
Staphylococcus aureus [3] = assay: Antibacterial activity against methicillin-resistant Staphylococcus aureus DRCC 019; format: functional
Enterococcus faecalis [4] = assay: Antibacterial activity against vancomycin-resistant Enterococcus faecalis DRCC 153; format: functional
Enterococcus faecium = assay: Antibacterial activity against vancomycin-resistant Enterococcus faecium DRCC 154; format: functional
Haemophilus influenzae = assay: Antibacterial activity against beta-lactamase deficient Haemophilus influenzae DRCC 433; format: functional
Enterococcus faecalis [5] = assay: Antibacterial activity against linezolid-resistant Enterococcus faecalis DRCC 632; format: functional
Staphylococcus aureus [6] = assay: Antibacterial activity against linezolid-resistant Staphylococcus aureus DRCC 564; format: functional
Moraxella catarrhalis = assay: Antibacterial activity against beta-lactamase deficient Moraxella catarrhalis DRCC 300; format: functional
Staphylococcus aureus [7] = assay: Antibacterial activity against Staphylococcus aureus DRCC 035 infected mouse systemic infection model administered orally for 1 day at 1 and 5 hrs post-infection and measured daily for 5 days; format: functional; conditions: po
[8] = Tmax in Swiss albino mouse at 10 mg/kg, po; format: ADME, organism-based; parameters: dose 10 mg/kg, route oral; conditions: in vivo
[9] = Drug elimination in Swiss albino mouse at 10 mg/kg, po; format: ADME, organism-based; parameters: dose 10 mg/kg, route oral; conditions: in vivo
[10] = Half life in Swiss albino mouse at 10 mg/kg, po; format: ADME, organism-based; parameters: dose 10 mg/kg, route oral; conditions: in vivo
[11] = Cmax in Swiss albino mouse at 10 mg/kg, po; format: ADME, organism-based; parameters: dose 10 mg/kg, route oral; conditions: in vivo
[12] = AUC (0 to t) in Swiss albino mouse at 10 mg/kg, po; format: ADME, organism-based; parameters: dose 10 mg/kg, route oral; conditions: plasma

| SMILES | MIC (Enterococcus faecalis [1]) | MIC (Staphylococcus aureus [2]) | MIC (Staphylococcus aureus [3]) | MIC (Enterococcus faecalis [4]) | MIC (Enterococcus faecium) | MIC (Haemophilus influenzae) | MIC (Enterococcus faecalis [5]) | MIC (Staphylococcus aureus [6]) | MIC (Moraxella catarrhalis) | ED50 (Staphylococcus aureus [7]) | Tmax [8] | k el [9] | half-life [10] | Cmax [11] | AUC(0-t) [12] |
| --- | --- | --- | --- | --- | --- | --- | --- | --- | --- | --- | --- | --- | --- | --- | --- |
| COc1ccc2[nH]cc(C(=O)C(=O)N3CCN(c4ccc(N5C[C@H](CNC(C)=O)OC5=O)cc4F)CC3)c2c1 | 1 µg/mL (≈ 1.86 µM) | 2 µg/mL (≈ 3.72 µM) | 1 µg/mL (≈ 1.86 µM) | 0.5 µg/mL (≈ 0.93 µM) | 1 µg/mL (≈ 1.86 µM) | > 32 µg/mL | – | – | – | – | – | – | – | – | – |
| COC(=S)NC[C@H]1CN(c2ccc(N3CCN(C(=O)C(=O)c4c[nH]c5ccc(Br)cc45)CC3)c(F)c2)C(=O)O1 | 1 µg/mL (≈ 1.62 µM) | 1 µg/mL (≈ 1.62 µM) | 1 µg/mL (≈ 1.62 µM) | 0.5 µg/mL (≈ 0.808 µM) | 1 µg/mL (≈ 1.62 µM) | > 32 µg/mL | 2 µg/mL (≈ 3.23 µM) | 2 µg/mL (≈ 3.23 µM) | 1 µg/mL (≈ 1.62 µM) | > 30 mg/kg | – | – | – | – | – |
| COC(=O)NC[C@H]1CN(c2ccc(N3CCN(C(=O)C(=O)c4c[nH]c5ccc(Br)cc45)CC3)c(F)c2)C(=O)O1 | 1 µg/mL (≈ 1.66 µM) | 1 µg/mL (≈ 1.66 µM) | 0.5 µg/mL (≈ 0.83 µM) | 0.5 µg/mL (≈ 0.83 µM) | 1 µg/mL (≈ 1.66 µM) | > 32 µg/mL | 32 µg/mL (≈ 53.1 µM) | 16 µg/mL (≈ 26.6 µM) | 2 µg/mL (≈ 3.32 µM) | – | – | – | – | – | – |
| O=C(C(=O)N1CCN(c2ccc(N3C[C@H](CNC(=O)C4CC4)OC3=O)cc2F)CC1)c1c[nH]c2ccc(Br)cc12 | 2 µg/mL (≈ 3.27 µM) | 1 µg/mL (≈ 1.63 µM) | 2 µg/mL (≈ 3.27 µM) | 1 µg/mL (≈ 1.63 µM) | 2 µg/mL (≈ 3.27 µM) | > 32 µg/mL | 8 µg/mL (≈ 13.1 µM) | 8 µg/mL (≈ 13.1 µM) | 4 µg/mL (≈ 6.53 µM) | 18.9 mg/kg | 2 h | 0.000169 s⁻¹ | 1.13 h | 300 ng/mL | 1260 ng·h/mL |
| O=C(C(=O)N1CCN(c2ccc(N3C[C@H](CNC(=O)C(Cl)Cl)OC3=O)cc2F)CC1)c1c[nH]c2ccc(Br)cc12 | 1 µg/mL (≈ 1.53 µM) | 1 µg/mL (≈ 1.53 µM) | 1 µg/mL (≈ 1.53 µM) | 0.25 µg/mL (≈ 0.381 µM) | 0.5 µg/mL (≈ 0.763 µM) | > 32 µg/mL | 4 µg/mL (≈ 6.1 µM) | 4 µg/mL (≈ 6.1 µM) | 2 µg/mL (≈ 3.05 µM) | > 30 mg/kg | – | – | – | – | – |
| O=C(C(=O)N1CCN(c2ccc(N3C[C@H](Cn4ccnn4)OC3=O)cc2F)CC1)c1c[nH]c2ccc(Br)cc12 | 1 µg/mL (≈ 1.68 µM) | 2 µg/mL (≈ 3.35 µM) | 0.5 µg/mL (≈ 0.838 µM) | 0.5 µg/mL (≈ 0.838 µM) | 0.5 µg/mL (≈ 0.838 µM) | > 32 µg/mL | 16 µg/mL (≈ 26.8 µM) | 8 µg/mL (≈ 13.4 µM) | 4 µg/mL (≈ 6.71 µM) | 28.9 mg/kg | – | – | – | – | – |
| O=C(C(=O)N1CCN(c2ccc(N3C[C@H](COc4ccon4)OC3=O)cc2F)CC1)c1c[nH]c2ccc(Br)cc12 | 32 µg/mL (≈ 52.3 µM) | > 32 µg/mL | 32 µg/mL (≈ 52.3 µM) | 32 µg/mL (≈ 52.3 µM) | > 32 µg/mL | > 32 µg/mL | 32 µg/mL (≈ 52.3 µM) | 32 µg/mL (≈ 52.3 µM) | 32 µg/mL (≈ 52.3 µM) | – | – | – | – | – | – |
| CC(=O)NC[C@H]1CN(c2ccc(N3CCN(C(=O)C(=O)c4c[nH]c5ccc(C#N)cc45)CC3)c(F)c2)C(=O)O1 | 1 µg/mL (≈ 1.88 µM) | 1 µg/mL (≈ 1.88 µM) | 1 µg/mL (≈ 1.88 µM) | 0.5 µg/mL (≈ 0.939 µM) | 1 µg/mL (≈ 1.88 µM) | > 32 µg/mL | – | – | – | > 30 mg/kg | 3 h | 0.000161 s⁻¹ | 1.19 h | 430 ng/mL | 1900 ng·h/mL |
| CC(=O)NC[C@H]1CN(c2ccc(N3CCN(C(=O)C(=O)c4c[nH]c5ccc([N+](=O)[O-])cc45)CC3)c(F)c2)C(=O)O1 | 1 µg/mL (≈ 1.81 µM) | 2 µg/mL (≈ 3.62 µM) | 1 µg/mL (≈ 1.81 µM) | 1 µg/mL (≈ 1.81 µM) | 2 µg/mL (≈ 3.62 µM) | > 32 µg/mL | – | – | – | – | – | – | – | – | – |
| CC(=O)NC[C@H]1CN(c2ccc(N3CCN(C(=O)C(=O)c4c(C)[nH]c5ccccc45)CC3)c(F)c2)C(=O)O1 | 1 µg/mL (≈ 1.92 µM) | 2 µg/mL (≈ 3.83 µM) | 1 µg/mL (≈ 1.92 µM) | 1 µg/mL (≈ 1.92 µM) | 2 µg/mL (≈ 3.83 µM) | > 32 µg/mL | – | – | – | – | – | – | – | – | – |
| CC(=O)NC[C@H]1CN(c2ccc(N3CCN(C(=O)C(=O)c4cn(C)c5ccccc45)CC3)c(F)c2)C(=O)O1 | 1 µg/mL (≈ 1.92 µM) | 2 µg/mL (≈ 3.83 µM) | 1 µg/mL (≈ 1.92 µM) | 1 µg/mL (≈ 1.92 µM) | 2 µg/mL (≈ 3.83 µM) | > 32 µg/mL | – | – | – | – | – | – | – | – | – |
| CC(=O)NC[C@H]1CN(c2ccc(N3CCN(C(=O)C(=O)c4c[nH]c5ncccc45)CC3)c(F)c2)C(=O)O1 | 1 µg/mL (≈ 1.97 µM) | 2 µg/mL (≈ 3.93 µM) | 1 µg/mL (≈ 1.97 µM) | 0.5 µg/mL (≈ 0.983 µM) | 1 µg/mL (≈ 1.97 µM) | > 32 µg/mL | – | – | – | > 30 mg/kg | 0.5 h | 0.000219 s⁻¹ | 0.87 h | 1050 ng/mL | 3360 ng·h/mL |
| CC(=O)NC[C@H]1CN(c2ccc(N3CCN(C(=O)C(=O)c4c[nH]c5ccc(Br)cc45)CC3)c(F)c2)C(=O)O1 | 1 µg/mL (≈ 1.71 µM) | 1 µg/mL (≈ 1.71 µM) | 0.5 µg/mL (≈ 0.853 µM) | 0.5 µg/mL (≈ 0.853 µM) | 1 µg/mL (≈ 1.71 µM) | > 32 µg/mL | 8 µg/mL (≈ 13.6 µM) | 8 µg/mL (≈ 13.6 µM) | 2 µg/mL (≈ 3.41 µM) | 27 mg/kg | 2 h | 8.89e-05 s⁻¹ | 2.17 h | 680 ng/mL | 2250 ng·h/mL |
| CC(=S)NC[C@H]1CN(c2ccc(N3CCN(C(=O)C(=O)c4c[nH]c5ccc(Br)cc45)CC3)c(F)c2)C(=O)O1 | 0.5 µg/mL (≈ 0.83 µM) | 0.5 µg/mL (≈ 0.83 µM) | 0.25 µg/mL (≈ 0.415 µM) | 0.12 µg/mL (≈ 0.199 µM) | 0.25 µg/mL (≈ 0.415 µM) | > 32 µg/mL | 2 µg/mL (≈ 3.32 µM) | 2 µg/mL (≈ 3.32 µM) | 2 µg/mL (≈ 3.32 µM) | > 30 mg/kg | – | – | – | – | – |
| O=C(C(=O)N1CCN(c2ccc(N3C[C@H](CNC(=O)C(F)F)OC3=O)cc2F)CC1)c1c[nH]c2ccc(Br)cc12 | 1 µg/mL (≈ 1.61 µM) | 2 µg/mL (≈ 3.21 µM) | 1 µg/mL (≈ 1.61 µM) | 0.25 µg/mL (≈ 0.402 µM) | 0.5 µg/mL (≈ 0.803 µM) | > 32 µg/mL | 4 µg/mL (≈ 6.43 µM) | 4 µg/mL (≈ 6.43 µM) | 2 µg/mL (≈ 3.21 µM) | > 30 mg/kg | – | – | – | – | – |
| CC(=O)NC[C@H]1CN(c2ccc(N3CCN(C(=O)C(=O)c4c[nH]c5ccccc45)CC3)c(F)c2)C(=O)O1 | 1 µg/mL (≈ 1.97 µM) | 1 µg/mL (≈ 1.97 µM) | 1 µg/mL (≈ 1.97 µM) | 1 µg/mL (≈ 1.97 µM) | 1 µg/mL (≈ 1.97 µM) | 16 µg/mL (≈ 31.5 µM) | – | – | – | 19.4 mg/kg | – | – | – | – | – |
| CC(=O)NC[C@H]1CN(c2ccc(N3CCOCC3)c(F)c2)C(=O)O1 [LINEZOLID] | – | – | 1 µg/mL (≈ 2.96 µM) | – | 2 µg/mL (≈ 5.93 µM) | 8 µg/mL (≈ 23.7 µM) | 32 µg/mL (≈ 94.9 µM) | 32 µg/mL (≈ 94.9 µM) | 4 µg/mL (≈ 11.9 µM) | 5.3 mg/kg | 0.25 h | 0.000142 s⁻¹ | 1.37 h | 6310 ng/mL | 11000 ng·h/mL |
